Tested on: Acinetobacter baumannii strains
Experiment: Antibiotic susceptibility test (CLSI disk diffusion test method, read per CLSI 2016); further: key: ‘S’ means susceptible; ‘I’ means intermediate; ‘R’ means resistant
Type: cell-based

With CN(C)c1ccc(O)c2c1C[C@H]1C[C@H]3[C@H](N(C)C)C(O)=C(C(N)=O)C(=O)[C@@]3(O)C(O)=C1C2=O [Minocycline, minocycline] the antibiotic susceptibility class (host strain YMC14/01/C29) was “S”, the antibiotic susceptibility class (host strain YMC14/01/IP122) was “S” and the antibiotic susceptibility class (host strain YMC14/01/L8) was “S”. For the same compound, the antibiotic susceptibility class (host strain YMC14/01/P31) was “S”, the antibiotic susceptibility class (host strain YMC14/01/P117) was “S” and the antibiotic susceptibility class (host strain YMC14/01/P224) was “S”. For the same compound, the antibiotic susceptibility class (host strain YMC14/01/P727) was “S”, the antibiotic susceptibility class (host strain YMC14/01/P728) was “S” and the antibiotic susceptibility class (host strain YMC14/01/R130) was “S”. The antibiotic susceptibility class (host strain YMC14/01/R160) was “I”, the antibiotic susceptibility class (host strain YMC14/01/R198) was “I” and the antibiotic susceptibility class (host strain YMC14/01/R257) was “I”. The antibiotic susceptibility class (host strain YMC14/01/R270) was “S”, the antibiotic susceptibility class (host strain YMC14/01/R324) was “S” and the antibiotic susceptibility class (host strain YMC14/01/R443) was “I”. For the same compound, the antibiotic susceptibility class (host strain YMC14/01/R451) was “R”, the antibiotic susceptibility class (host strain YMC14/01/R560) was “R” and the antibiotic susceptibility class (host strain YMC14/01/R617) was “R”. For the same compound, the antibiotic susceptibility class (host strain YMC14/01/R671) was “I”, the antibiotic susceptibility class (host strain YMC14/01/R732) was “S” and the antibiotic susceptibility class (host strain YMC14/01/R767) was “S”. The antibiotic susceptibility class (host strain YMC14/01/R904) was “I”, the antibiotic susceptibility class (host strain YMC14/01/R905) was “I” and the antibiotic susceptibility class (host strain YMC14/01/R921) was “S”. The antibiotic susceptibility class (host strain YMC14/01/R941) was “S”, the antibiotic susceptibility class (host strain YMC14/01/R958) was “S” and the antibiotic susceptibility class (host strain YMC14/01/R1006) was “S”. The antibiotic susceptibility class (host strain YMC14/01/R1199) was “S”, the antibiotic susceptibility class (host strain YMC14/01/R1659) was “S” and the antibiotic susceptibility class (host strain YMC14/01/R1722) was “S”. The antibiotic susceptibility class (host strain YMC14/01/R1752) was “S”, the antibiotic susceptibility class (host strain YMC14/01/R2429) was “S” and the antibiotic susceptibility class (host strain YMC14/01/R2572) was “S”. The antibiotic susceptibility class (host strain YMC14/01/R2855) was “S”, the antibiotic susceptibility class (host strain YMC14/01/R2945) was “S” and the antibiotic susceptibility class (host strain YMC14/01/R3007) was “S”. The antibiotic susceptibility class (host strain YMC14/01/R3129) was “S”, the antibiotic susceptibility class (host strain YMC14/01/R3317) was “S” and the antibiotic susceptibility class (host strain YMC14/01/R3474) was “S”. For the same compound, the antibiotic susceptibility class (host strain YMC14/01/R3574) was “S”, the antibiotic susceptibility class (host strain YMC14/01/U313) was “S” and the antibiotic susceptibility class (host strain YMC14/01/U318) was “I”. For the same compound, the antibiotic susceptibility class (host strain YMC14/02/L18) was “S”, the antibiotic susceptibility class (host strain YMC14/02/P47) was “S” and the antibiotic susceptibility class (host strain YMC14/02/R1860) was “S”. For the same compound, the antibiotic susceptibility class (host strain YMC14/02/R2417) was “S”, the antibiotic susceptibility class (host strain YMC14/02/R2599) was “S” and the antibiotic susceptibility class (host strain YMC14/02/R2668) was “S”. For the same compound, the antibiotic susceptibility class (host strain YMC14/02/R2758) was “S”, the antibiotic susceptibility class (host strain YMC14/02/R2781) was “S” and the antibiotic susceptibility class (host strain YMC14/02/R3106) was “S”. For the same compound, the antibiotic susceptibility class (host strain YMC14/02/R3419) was “S”, the antibiotic susceptibility class (host strain YMC14/02/U1607) was “S” and the antibiotic susceptibility class (host strain YMC14/03/L9) was “S”. For the same compound, the antibiotic susceptibility class (host strain YMC14/03/P471) was “S”, the antibiotic susceptibility class (host strain YMC14/03/R122) was “S” and the antibiotic susceptibility class (host strain YMC14/03/R217) was “S”. For the same compound, the antibiotic susceptibility class (host strain YMC14/03/R380) was “S”, the antibiotic susceptibility class (host strain YMC14/03/R618) was “S” and the antibiotic susceptibility class (host strain YMC14/03/R2144) was “S”. For the same compound, the antibiotic susceptibility class (host strain YMC14/03/U4616) was “S”, the antibiotic susceptibility class (host strain YMC14/04/R1078) was “S” and the antibiotic susceptibility class (host strain YMC14/04/R1080) was “S”. The “antibiotic susceptibility S/I/R” value (host strain YMC14/06/R2359) was “S”, the “susceptibility category (S/I/R)” value (host strain YMC14/06/R2359) was “S” and the “antibiotic susceptibility S/I/R” value (host strain YMC14/08/R1169) was “S”. The “susceptibility category (S/I/R)” value (host strain YMC14/08/R1169) was “S”, the “antibiotic susceptibility S/I/R” value (host strain YMC14/08/T90) was “S” and the “susceptibility category (S/I/R)” value (host strain YMC14/08/T90) was “S”. The “antibiotic susceptibility S/I/R” value (host strain YMC15/02/R436) was “R”, the “susceptibility category (S/I/R)” value (host strain YMC15/02/R436) was “R” and the “antibiotic susceptibility S/I/R” value (host strain YMC15/02/T28) was “S”. For the same compound, the “susceptibility category (S/I/R)” value (host strain YMC15/02/T28) was “S”, the “antibiotic susceptibility S/I/R” value (host strain YMC15/03/R1604) was “S” and the “susceptibility category (S/I/R)” value (host strain YMC15/03/R1604) was “S”. For the same compound, the “antibiotic susceptibility S/I/R” value (host strain YMC15/09/R1869) was “S”, the “susceptibility category (S/I/R)” value (host strain YMC15/09/R1869) was “S” and the “antibiotic susceptibility S/I/R” value (host strain YMC16/01/P11) was “S”. The “susceptibility category (S/I/R)” value (host strain YMC16/01/P11) was “S”, the “antibiotic susceptibility S/I/R” value (host strain YMC16/01/R123) was “S” and the “susceptibility category (S/I/R)” value (host strain YMC16/01/R123) was “S”. For the same compound, the “antibiotic susceptibility S/I/R” value (host strain YMC16/01/R198) was “S”.
